Legend:
[1] = system: Brain Synaptosome Uptake of 5-HT; test: Inhibition of [3H]-5-HT uptake by brain synaptosomes; type: biochemical, rats; conditions: 0.1 mmol/L; rat frontal cortex synaptosomes; inhibited ratio by Fluoxetine counts 100%
Source text: (§1) The trial of uptaking the mono-amines neurotransmitter by synaptosomes is now one of the common method to study the central nervous pharmacology. This method is not only used to study the action mechanism of the medicament, but also to look for new antidepressant drugs which act on this tache. […] The method is recounted as follows:
(§2) (1). Preparation of synaptosomes. According to the described method by literatures (a. Biochem Pharmacol 1973, 22: 311-322, b. Methods in Neurochemistry, Vol. 2, New York: Marcel Dakker, Inc, 1972, 1-52), rats were decapitated, the brains rapidly excised, and frontal cortex dissected out on ice-cold saline (4° C.). The 3 g tissue was homogenized in 30 ml of ice-cold 0.32M sucrose and then centrifuged (1500 g) for 10 min (4° C.). The pellet was discarded and the supernatant centrifuged (20000 g) for 30 min (4° C.). After refined, the pellet was resuspended in buffer and immediately used. Protein content was deter mined with kit of total protein.
(§3) (2). Uptake of 5-HT. According to the described method by literatures (Br J Pharmacol, 1997, 122: 302-306; b. 1992, 105: 147-151), in the tubes, 1.0 ml artificial cerebral fluid, 20 μl suspension of synaptosomes and 10 μl solution of compound were added. After mixing, the tubes were incubated 5 min in 37° C. Uptake was started by addition of 10 μl [^3H]-5-HT or [^3H]-NA (300 nM), after another mixing, the tubes were incubated again 5 min in 37° C. The reaction was stopped by cooling the tubes in ice, the samples were then filtered through glass fibre filters and washed twice with artificial cerebral fluid. After drying in 60-70° C., the filter membranes were put into scintillation tubes. Filter-bound radioactivity was counted by scintillation spectrometry. The difference in [^3H]-5-HT or [^3H]-NA at 37° C. and 0° C. was taken as a measure of active uptake.

[2] = system: Brain Synaptosome Uptake of NA; test: Inhibition of [3H]-NA uptake by brain synaptosomes; type: biochemical, rats; conditions: 0.1 mmol/L; rat frontal cortex synaptosomes; inhibited ratio by Desipramine counts 100%
Source text: as §1, §2, §3

[3] = system: mouse; test: Tail suspension test of behavioural despair; type: in vivo; conditions: control 89.7±38.27
Method: (§4) Using the tail suspension test of “behavioural despair” and the mouse forced swimming test, and choosing Desipra mine as control medicament, to study the primary antidepressant effect of IV-19 that has the strong inhibited effect for both uptake of 5-HT and NA. The results are as follows:
(1). In the tail suspension test, IV-19 can diminish obviously the immobile times of mouse due to despair. The effect induced by 50 mg/kg IV-19 (20.2±16.05 sec) is the same as 10 mg/kg Desipra mine (27.5±21.93 sec), but a significant difference occurs when comparing with control (89.7±38.27).

[4] = system: mouse; test: Mouse forced swimming test; type: in vivo; conditions: control 93.4±27.36
Method: as §4
(2). In the mouse forced swimming test, IV-19 also can diminish obviously the immobile times of mouse in water due to despair. As the results of tail suspension test, the effect induced by 50 mg/kg IV-19 (46.3±30.2 sec) is the same as 10 mg/kg Desipra mine (46±27.36 sec), but a significant difference occurs when comparing with control (93.4±27.36).

[5] = system: mice; test: Acute toxicity; type: in vivo; conditions: p.o. in mice, calculated with Bliss
[6] = system: S. Typhimurium TA97, TA98, TA100 and TA102; test: Bacterial reverse-mutation assay (Ames TS); type: cell-based
Source text: 4. Bacterial reverse-mutation assay (Ames TS) of IV-19
Bacillus: S. Typhimurium TA97, TA98, TA100 and TA102
All tested doses didn't induce the evident increase of revertants, Ames TS of […] is negative.

## COc1ccc2cc(C(O)C(C)N3CCN(Cc4ccc([N+](=O)[O-])cc4)CC3)ccc2c1Cl.Cl.Cl (centres unmarked) [IV-20, N^1-(4-nitrobenzyl)-N^4-[1-(5-chloro-6-methoxyl-naphthalen-2-yl)-propane-2-yl-1-ol] piperazine dihydrochloride]
[1]
  Inhibited ratio of uptake for 5-HT(%): 110%
[2]
  Inhibited ratio of uptake for NA(%): 108%

## N^1-(S-1-phenylethyl)-N^4-[1-(5-chloro-6-methoxyl-naphthalen-2-yl)-propane-2-yl-1-ol] piperazine dihydrochloride [IV-34]
[1]
  Inhibited ratio of uptake for 5-HT(%): 108%
[2]
  Inhibited ratio of uptake for NA(%): 10%

## N^1-benzyl-N^4-[1-(5-chloro-6-methoxyl-naphthalen-2-yl)-propane-2-yl-1-ol] piperazine dihydrochloride [IV-19]
[1]
  Inhibited ratio of uptake for 5-HT(%): 114%
[2]
  Inhibited ratio of uptake for NA(%): 140%
[3]; 50 mg/kg
  immobile times of mouse, tail suspension test: 20.2 ± 16.05 s
[4]; 50 mg/kg
  immobile times of mouse in water, forced swimming test: 46.3 ± 30.2 s
[5]
  LD50: about 1 g/kg
[6]; TA97, TA98, TA100, TA102, without S9 and with S9, all tested doses
  Ames TS result (increase of revertants): negative
[6]; TA97, with S9, 5000 μg/utensil
  inhibitory effect for the growth of bacteria: inhibitory effect
[6]; TA98, without S9, 5000 μg/utensil
  inhibitory effect for the growth of bacteria: inhibitory effect

## N^1-benzyl-N^4-[2-(4-chlorophenyl)ethyl-2-ol] piperazine dihydrochloride [IV-4]
[1]
  Inhibited ratio of uptake for 5-HT(%): 85%
[2]
  Inhibited ratio of uptake for NA(%): 51%

## N^1-(4-chlorobenzyl)-N^4-(phenylpropane-2-yl-3-ol) piperazine dihydrochloride [IV-2]
[1]
  Inhibited ratio of uptake for 5-HT(%): 82%
[2]
  Inhibited ratio of uptake for NA(%): 62%

## N^1-(R-1-phenylethyl)-N^4-[1-(5-chloro-6-methoxyl-naphthalen-2-yl)-propane-2-yl-1-ol] piperazine dihydrochloride [IV-35]
[1]
  Inhibited ratio of uptake for 5-HT(%): 107%
[2]
  Inhibited ratio of uptake for NA(%): 58%

## Cl.Cl.OC(c1ccccc1)C(c1ccccc1)N1CCN(Cc2ccccc2)CC1 (centres unmarked) [IV-8, N^1-benzyl-N^4-[(1,2-diphenyl)ethyl-2-ol] piperazine dihydrochloride]
[1]
  Inhibited ratio of uptake for 5-HT(%): <10%
[2]
  Inhibited ratio of uptake for NA(%): 104%

## N^1-(4-nitrobenzyl)-N^4-(2-phenylethyl-2-ol) piperazine dihydrochloride [IV-26]
[1]
  Inhibited ratio of uptake for 5-HT(%): 63%
[2]
  Inhibited ratio of uptake for NA(%): 80%

## CNCCCN1c2ccccc2CCc2ccccc21 [Desipra mine, reference compound]
[2]
  Inhibited ratio of uptake for NA(%): 100%
[3]; 10 mg/kg
  immobile times of mouse, tail suspension test: 27.5 ± 21.93 s
[4]; 10 mg/kg
  immobile times of mouse in water, forced swimming test: 46 ± 27.36 s

## Cl.Cl.OC(CN1CCN(Cc2ccc(F)cc2)CC1)c1ccc(Cl)cc1 (centres unmarked) [IV-11, N^1-(4-fluorobenzyl)-N^4-[2-(4-chlorophenyl)ethyl-2-ol] piperazine dihydrochloride]
[1]
  Inhibited ratio of uptake for 5-HT(%): 81%
[2]
  Inhibited ratio of uptake for NA(%): 101%

## N^1-(4-fluorobenzyl)-N^4-(2-phenylethyl-2-ol) piperazine dihydrochloride [IV-6]
[1]
  Inhibited ratio of uptake for 5-HT(%): 79%
[2]
  Inhibited ratio of uptake for NA(%): 107%

## COc1ccc2cc(C(O)C(C)N3CCN(c4cccc(Cl)c4)CC3)ccc2c1Cl.Cl.Cl (centres unmarked) [IV-17, N^1-(3-chlorophenyl)-N^4-[1-(5-chloro-6-methoxyl-naphthalen-2-yl)-propane-2-yl-1-ol] piperazine dihydrochloride]
[1]
  Inhibited ratio of uptake for 5-HT(%): 99%
[2]
  Inhibited ratio of uptake for NA(%): 30%

## COc1cc(CN2CCN(C(C)C(O)c3ccc4c(Cl)c(OC)ccc4c3)CC2)cc(OC)c1OC.Cl.Cl (centres unmarked) [IV-22, N^1-(3,4,5-trimethoxybenzyl)-N^4-[1-(5-chloro-6-methoxyl-naphthalen-2-yl)-propane-2-yl-1-ol] piperazine dihydrochloride]
[1]
  Inhibited ratio of uptake for 5-HT(%): 116%
[2]
  Inhibited ratio of uptake for NA(%): 77%

## COc1ccc2cc(C(O)C(C)N3CCN(CC(O)c4ccccc4)CC3)ccc2c1Cl.Cl.Cl (centres unmarked) [IV-18, N^1-(2-phenylethyl-2-ol)-N^4-[1-(5-chloro-6-methoxyl-naphthalen-2-yl)-propane-2-yl-1-ol] piperazine dihydrochloride]
[1]
  Inhibited ratio of uptake for 5-HT(%): 127%
[2]
  Inhibited ratio of uptake for NA(%): 23%
